From BindingDB's records for doi:10.1016/j.bmcl.2013.02.084 (Astrazeneca, 2013)

Assays:
[1] = target: 2-acylglycerol O-acyltransferase 2 (human) (UniProt Q3SYC2); experiment: Inhibition of human recombinant MGAT2 expressed in insect cell membrane using 2-oleoyl-sn-glycerol and oleoyl coenzyme A as substrate after 40 mins by Ellmans assay based rapidfire LCMS analysis
[2] = target: 2-acylglycerol O-acyltransferase 1 (human) (UniProt Q96PD6); experiment: Inhibition of human recombinant MGAT1 expressed in insect cell membrane using 2-oleyl-sn-glycerol and [14C]-oleyl-coenzyme A as substrate after 10 to 15 mins by liquid scintillation counting analysis
Chain of 2-acylglycerol O-acyltransferase 1 (human) (Q96PD6 whole entry, looked up): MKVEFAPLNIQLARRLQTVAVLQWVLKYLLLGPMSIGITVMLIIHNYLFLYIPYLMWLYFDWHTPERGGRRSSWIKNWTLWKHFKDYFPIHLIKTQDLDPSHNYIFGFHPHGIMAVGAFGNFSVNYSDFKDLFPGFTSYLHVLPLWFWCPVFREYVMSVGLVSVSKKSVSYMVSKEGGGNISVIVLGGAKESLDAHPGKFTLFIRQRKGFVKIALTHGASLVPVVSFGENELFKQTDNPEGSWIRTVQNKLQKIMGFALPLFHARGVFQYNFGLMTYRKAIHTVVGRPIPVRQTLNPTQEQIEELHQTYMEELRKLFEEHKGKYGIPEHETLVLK

[3] = target: 2-acylglycerol O-acyltransferase 2 (mouse); experiment: Inhibition of mouse recombinant MGAT2 expressed in insect cell membrane using 2-oleoyl-sn-glycerol and oleoyl coenzyme A as substrate after 40 mins by Ellmans assay based rapidfire LCMS analysis
[4] = Inhibition of human recombinant MGAT3 expressed in insect cell membrane using 2-oleyl-sn-glycerol and [14C]-oleyl-coenzyme A as substrate after 10 to 15 mins by liquid scintillation counting analysis

Chain of 2-acylglycerol O-acyltransferase 2 (human) (Q3SYC2 whole entry, looked up): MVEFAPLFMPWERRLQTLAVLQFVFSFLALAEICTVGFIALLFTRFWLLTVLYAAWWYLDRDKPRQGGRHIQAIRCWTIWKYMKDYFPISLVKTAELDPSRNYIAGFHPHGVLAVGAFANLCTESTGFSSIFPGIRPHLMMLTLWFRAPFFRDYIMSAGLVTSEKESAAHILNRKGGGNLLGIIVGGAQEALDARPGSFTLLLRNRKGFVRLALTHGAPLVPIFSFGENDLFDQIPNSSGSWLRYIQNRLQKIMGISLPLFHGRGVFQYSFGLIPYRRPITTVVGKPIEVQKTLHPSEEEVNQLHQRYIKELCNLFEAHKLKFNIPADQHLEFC

Row | SMILES | IC50 [1] | further results
1 | CCC1(C)NC(=O)c2cc(NS(=O)(=O)c3ccccc3)ccc2NC1=O (stereo unspecified) | > 100000 nM | –
2 | CCCC1(C)NC(=O)c2cc(S(=O)(=O)Nc3ccc(F)cc3F)ccc2NC1=O (stereo unspecified) | 50 nM | –
3 | CCC1(C)NC(=O)c2cc(S(=O)(=O)NCc3ccccc3)ccc2NC1=O (stereo unspecified) | 7940 nM | –
4 | CCC1(C)NC(=O)c2cc(S(=O)(=O)Nc3ccc(Cl)cc3)ccc2NC1=O (stereo unspecified) | 25 nM | IC50 [2]: 50 nM; IC50 [3]: 4 nM; IC50 [4]: 398 nM
5 | CC1(C)COc2ccc(S(=O)(=O)Nc3ccc(Cl)cc3)cc2C(=O)N1 | 2000 nM | –
6 | CCC1(CC)NC(=O)c2cc(S(=O)(=O)Nc3ccc(F)cc3F)ccc2NC1=O | 3.2 nM | –
7 | CCC1(CC)CNc2ccc(S(=O)(=O)Nc3ccc(F)cc3F)cc2C(=O)N1 | 1.6 nM | –
8 | CCC1(C)NC(=O)c2cc(S(=O)(=O)Nc3ccccc3Cl)ccc2NC1=O (stereo unspecified) | 63 nM | IC50 [2]: 158 nM
9 | O=C1NC2(CCCC2)C(=O)Nc2ccc(S(=O)(=O)Nc3ccc(Cl)cc3)cc21 | 50 nM | –
10 | CCC1NC(=O)c2cc(S(=O)(=O)Nc3ccccc3)ccc2NC1=O (stereo unspecified) | 5010 nM | –
11 | CCC1(CC)CNc2ccc(S(=O)(=O)Nc3ccc(F)cc3F)cc2CN1 | 316 nM | –
12 | CCC1(C)NC(=O)c2cc(S(=O)(=O)N(C)c3ccccc3)ccc2NC1=O (stereo unspecified) | > 100000 nM | –
13 | CCC1(C)NC(=O)c2cc(S(=O)(=O)NC3CCCCC3)ccc2NC1=O (stereo unspecified) | 5010 nM | –
14 | CCC1(C)NC(=O)c2cc(S(=O)(=O)Nc3ccc(OC)cc3)ccc2NC1=O (stereo unspecified) | – | IC50 [2]: 32 nM
15 | O=C1NC2(CCC2)C(=O)Nc2ccc(S(=O)(=O)Nc3ccc(Cl)cc3)cc21 | 79 nM | –
16 | O=C(Nc1ccc(Cl)cc1)c1ccc2c(c1)C(=O)NC1(CCC1)C(=O)N2 | > 100000 nM | –
17 | CCC1(C)NC(=O)c2cc(S(=O)(=O)Nc3ccc(Cl)cc3)ccc2N(C)C1=O (stereo unspecified) | – | IC50 [2]: 398 nM
18 | CCC1(C)C(=O)Nc2ccc(S(=O)(=O)Nc3ccc(F)cc3F)cc2C(=O)N1C (stereo unspecified) | 7940 nM | IC50 [3]: 631 nM
19 | CCC1(C)NC(=O)c2cc(S(=O)(=O)Nc3ccccc3)ccc2NC1=O (stereo unspecified) | – | IC50 [2]: 501 nM
20 | CCC1(CC)NCc2cc(S(=O)(=O)Nc3ccc(F)cc3F)ccc2NC1=O | 251 nM | –
21 | CCC1(C)NC(=O)c2cc(S(=O)(=O)Nc3cccc(Cl)c3)ccc2NC1=O (stereo unspecified) | 2000 nM | –
